# What was measured:
# [1] = system: SKNBE2 neuroblastoma cells; assay: Toxicity profiling, percent death with and without cholesterol challenge; format: cell-based, human; conditions: 24 hrs of exposure; high doses
# Source text: FIG. 15. Toxicity profiling.
# [2] = system: SK-N-BE(2) cells; assay: Live cell confocal microscopy of NBD-cholesterol and lysotracker; format: cell-based, human; conditions: after 24 hours, only with NPC1 inhibitor U18666A and CBD 20 μM
# Source text: One possible explanation for why CBD sensitizes cells to inhibitors of cholesterol trafficking and storage is that CBD increases the flux of cholesterol from the plasma membrane to the lysosome-ER transport pathway. When this flux is activated and hydroxy cholesterol is supplied in excess, the inability to efficiently store cholesterol may cause subcellular accumulation of cholesterol/hydroxycholesterol in organelles that normally maintain low cholesterol levels. To test this hypothesis, the inventor's repeated the live cell confocal microscopy experiments with SK-N-BE(2) cells stained with fluorescent cholesterol (NBD-cholesterol) and the lysosome dye lysotracker.
# (§1) SK-N-BE(2) cells were seeded into fibronectin coated glass bottom 96 well plates (Matriplate) at a cell density of 40,000 cells/well using low background imaging media (FluoroBrite DMEM with all supplements described, above). At the time of seeding, nile red (ThermoFisher) was added at a final concentration of 100 ng/mL and NBD-cholesterol (ThermoFisher) was added at a final concentration of 10 μg/mL. […] Lipid droplets and their sizes were detected and quantified using the ImageJ Find Particles Function, and data was subsequently processed using Microsoft Excel. Error depicted represents the standard deviation calculated from three biological replicates. […]
# [3] = system: HaCaT cells; assay: Live cell microscopy apoptosis assay (caspase 3/7 dye); conditions: increasing 25-hydroxy cholesterol, constant CBD
# Description: (§2) To accurately measure cellular apoptosis over time, the present inventors performed live cell microscopy experiments with cells loaded with both DNA and caspase 3/7 dyes, which enables continuous and precise quantification of apoptosis at the single cell level.
# (§3) Cell viability for SK-N-BE(2) cells was conducted using a fluorometric cell viability assay using Resazurin (PromoKine) according to the manufacturer's instructions. […] Dyes were added at the time of seeding, 18-24 hours prior to performing experiments.
# (§4) Experiments were performed using an ImageXpress MicroXL microscope and a 10× objective, where images were acquired for each well at the indicated time-points using DAPI and FITC filter sets. […] Percent apoptotic cells was calculated from the sum of apoptotic cell pixels divided by the sum of all cell pixels for each field of view.
# [4] = system: SK-N-BE(2) cells; assay: as above
# Description: as §2, §3, §4
# [5] = system: SK-N-BE(2) cells; assay: Live cell confocal microscopy of lipid droplets (NBD-cholesterol, nile red); format: cell-based, human; conditions: CBD 20 μM, 24 hrs
# Source text: Thus, the present inventors found multiple lines of evidence consistent with activation of cholesterol esterification in the CBD response. To further support the claim that CBD elicits cholesterol storage, the present inventors used live cell confocal microscopy of SK-N-BE(2) cells stained with both fluorescent cholesterol (22-NBD-Cholesterol) and the lipid droplet dye nile red (FIG. 4E) to quantify the number and size of lipid droplets. […] Altogether, these combined experiments highlight that the CBD response in cells includes activation of cholesterol esterification and storage.
# as §1
# [6] = system: SK-N-BE(2) and HaCaT keratinocyte cell lines; assay: FRET biosensor profiling of CBD response; format: cell-based, human; conditions: CBD dose and time survey
# Description: To efficiently design the multi-omics experiments, the present inventors exposed the neuroblastoma cell line SK-N-BE(2) to escalating doses of CBD at 24, 48, and 72 hours and determined the EC50 of toxicity of CBD to be greatest at 72 hours and at an approximate concentration of 20 μM (FIG. 1 B). To maximize the efficient use of the inventor's multi-omic resources, a large dose and time survey of the CBD response was conducted in a panel of transgenic SK-N-BE(2) and HaCaT keratinocyte cell lines, each expressing a genetically encoded förster resonance energy transfer (FRET) biosensor gene capable of reporting the activity of a cellular effector molecule/activity including, but not limited to: AMP kinase activity, Erk kinase activity, cytosolic ATP, glucose, lactate, pyruvate & glutamine, Ca^2+ in the ER & Cytosol, mTor kinase activity & TACE protease activity. […] The biosensor activity profiles as a function of CBD dose and time (FIGS. 9A-C) were analyzed for the EC50 of each biosensor activity at each time (FIG. 10). The result of these efforts outlined that the most robust dose of CBD for use in multi-omic experiments is 20 μM and that the kinetic profile of the CBD response begins in hours and persists for days.
# Stable transgenic biosensor expressing cell lines were made in HaCaT and SK-N-BE(2) cells. […]
# [7] = system: endoplasmic reticulum in SKNBE2 and HaCaT keratinocyte cells; assay: Confocal microscopy of rhodamine-glibenclamide staining, ER structure; format: cell-based, human
# Description: FIG. 16. Rhodamine-glibenclamide staining in live cells is visualized by confocal microscopy in live cells. ER structure is perturbed after 2 hours of exposure to CBD and o-1602, but not for o-1821 exposure.
compound,measurement,setting,value
"C=C(C)[C@@H]1CCC(C)=C[C@H]1c1c(O)cc(CCCCC)cc1O [CBD, cannabidiol]",toxicity in cells challenged with a high cholesterol environment,[1],toxic
same,fluorescent cholesterol in lysosomes,[2],accumulates in labeled lysosomes
same,"sensitivity of CBD exposed cells to 25-hydroxy cholesterol induced apoptosis, relative to SK-N-BE(2)",[3],more dramatically observed
same,effect on DHA induced apoptosis,[4]; DHA 75 μM with MBCD 300 μM or CBD 6.25 μM,completely cancel the apoptotic effects
same,sensitivity of CBD exposed cells to 25-hydroxy cholesterol induced apoptosis,"[4]; increasing 25-hydroxy cholesterol, constant CBD",clear dose dependent sensitivity
same,average abundance of lipid droplets,[5],increases
same,lipid droplet size,[5],does not affect
same,biosensor activities across panel,[6],causes modulation of all biochemical pathways that were probed
same,alteration of the structure of the endoplasmic reticulum,[7]; SKNBE2 and HaCaT keratinocyte cells,dramatically alters the structure of the endoplasmic reticulum
same,ER structure,"[7]; after 2 hours of exposure, live cells",perturbed

# — US20210244686A1, “Novel Systems And Methods For The Therapeutic Use of Cannabinoids or Cannabinoid Analogs to Increase The Lipid Order of Cholesterol Containing Cell Membranes” (The Regents of the University of Colorado a body corporate, priority 2018, published 2021)
